Data reported in the supplement of paper PMC5908809.

Legend:
[1] = tested on: normal NK cells expanded with K562-aAPC; assay: drug sensitivity score (DSS) (DSS units); higher = more sensitive; extreme values may be limits of the assay; conditions: 72 h; IL-2 2.5 ng/mL
Protocol: (§1)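 Drug sensitivity and resistance testing on K562-aAPC-expanded normal NK cells: 5 concentrations (10-fold steps over a 10,000-fold range), 72 h at 37 °C, viability by CellTiter-Glo normalised to DMSO and benzethonium chloride controls; DSS from the fitted curve.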

[2] = tested on: YT (IL-2 2.5 ng/mL); assay: percent inhibition of viability; higher = more inhibition; conditions: 72 h
[3] = tested on: KHYG-1 (IL-2 2.5 ng/mL); assay: as above; conditions: 72 h
[4] = tested on: normal primary NK cells, pool 2 (3 donors) (IL-2 2.5 ng/mL); assay: as above; conditions: 72 h
[5] = tested on: NK-YS (IL-2 2.5 ng/mL); assay: as above; conditions: 72 h
[6] = tested on: normal primary NK cells, pool 1 (3 donors), resting (IL-2 0 ng/mL); assay: as above; conditions: 72 h
[7] = tested on: normal primary NK cells, pool 3 (3 donors) (IL-2 2.5 ng/mL); assay: as above; conditions: 72 h
[8] = tested on: KAI3 (IL-2 2.5 ng/mL); assay: as above; conditions: 72 h
[9] = tested on: NK-92 (IL-2 2.5 ng/mL); assay: as above; conditions: 72 h
[10] = tested on: DERL-7 (IL-2 2.5 ng/mL); assay: as above; conditions: 72 h
[11] = tested on: NKL (IL-2 2.5 ng/mL); assay: as above; conditions: 72 h
[12] = tested on: normal primary NK cells, pool 1 (3 donors) (IL-2 2.5 ng/mL); assay: as above; conditions: 72 h
[13] = tested on: IMC-1 (IL-2 20 ng/mL); assay: as above; conditions: 72 h
[14] = tested on: SNK-6 (IL-2 2.5 ng/mL); assay: as above; conditions: 72 h
[15] = tested on: YT (IL-2 2.5 ng/mL); assay: drug sensitivity score (DSS) (DSS units); higher = more sensitive; extreme values may be limits of the assay; conditions: 72 h
[16] = tested on: KHYG-1 (IL-2 2.5 ng/mL); assay: as above; conditions: 72 h
[17] = tested on: normal primary NK cells, pool 2 (3 donors) (IL-2 2.5 ng/mL); assay: as above; conditions: 72 h
[18] = tested on: NK-YS (IL-2 2.5 ng/mL); assay: as above; conditions: 72 h
[19] = tested on: normal primary NK cells, pool 1 (3 donors), resting (IL-2 0 ng/mL); assay: as above; conditions: 72 h
[20] = tested on: normal primary NK cells, pool 3 (3 donors) (IL-2 2.5 ng/mL); assay: as above; conditions: 72 h
[21] = tested on: KAI3 (IL-2 2.5 ng/mL); assay: as above; conditions: 72 h
[22] = tested on: NK-92 (IL-2 2.5 ng/mL); assay: as above; conditions: 72 h
[23] = tested on: DERL-7 (IL-2 2.5 ng/mL); assay: as above; conditions: 72 h
[24] = tested on: NKL (IL-2 2.5 ng/mL); assay: as above; conditions: 72 h
[25] = tested on: normal primary NK cells, pool 1 (3 donors) (IL-2 2.5 ng/mL); assay: as above; conditions: 72 h
[26] = tested on: IMC-1 (IL-2 20 ng/mL); assay: as above; conditions: 72 h
[27] = tested on: SNK-6 (IL-2 2.5 ng/mL); assay: as above; conditions: 72 h
[28] = tested on: normal NK cells expanded with K562-aAPC; assay: percent inhibition of viability; higher = more inhibition; conditions: 72 h, IL-2 2.5 ng/mL
Protocol: as §1

CC1(C)CNc2cc(NC(=O)c3cccnc3NCc3ccncc3)ccc21 [Motesanib] (max concentration tested 10000 nM)
Conditions | drug sensitivity score
[1] | 0.32
[15] | 0.65
[16] | 0
[17] | 0
[18] | 0.73
[19] | 0
[20] | 0
[21] | 1.11
[22] | 3.26
[23] | 0
[24] | 3.62
[25] | 0
[26] | 0.85
[27] | 0

percent inhibition of viability [%]
Conditions | 1 nM | 10 nM | 100 nM | 1000 nM | 10000 nM
[2] | -3.76 | -2.12 | -1.24 | 6.34 | 14.4
[3] | -8.69 | -5.06 | -3.55 | 8.47 | 9.44
[4] | -7.61 | 1.62 | 3.62 | 1.34 | 2.65
[5] | -4.47 | -3.14 | -5.16 | 6.4 | 15
[6] | 4.22 | 16.2 | 15.4 | 16.6 | 11.9
[7] | -2.89 | 5.36 | 3.67 | 3.63 | 9.45
[8] | -8.29 | -1.63 | -3.65 | 2.07 | 23.2
[9] | 5.17 | 2.14 | 10.4 | 20.8 | 17.9
[10] | 8.61 | 2.19 | 10.7 | -4.45 | -7.84
[11] | -8.65 | -10.7 | -6.54 | 20 | 30.4
[12] | -3.57 | 3.71 | 11 | 2.82 | -3.82
[13] | -10.7 | -4.04 | -2.1 | 5 | 16.6
[14] | -15.2 | -22.6 | -22.4 | -32.4 | -29.5
[28] | -5.87 | -5.96 | -6.1 | 8.26 | 11.9

CNC(=O)c1ccc(-c2cnc3ncc(Cc4ccc5ncccc5c4)n3n2)cc1F [NVP-INC280] (max concentration tested 1000 nM)
Conditions | drug sensitivity score
[1] | 0.67
[15] | 0.42
[16] | 0
[17] | 0
[18] | 0
[19] | 0
[20] | 0
[21] | 0.03
[22] | 0
[23] | 0
[24] | 0
[25] | 0
[26] | 0.81
[27] | 4.62

percent inhibition of viability [%]
Conditions | 0.1 nM | 1 nM | 10 nM | 100 nM | 1000 nM
[2] | -0.04 | -0.12 | 2.87 | 3.88 | 14.8
[3] | 0.53 | 0.71 | 6.28 | 8.45 | 7.71
[4] | -5.16 | -9.82 | 0.45 | -1.98 | 7.71
[5] | -3.18 | -2.55 | 2.09 | 4.91 | 7.49
[6] | -4.36 | 11.4 | -16.1 | -15.8 | -5.95
[7] | -4.63 | -9.7 | -8.57 | -10.9 | -0.53
[8] | -3.13 | -7.87 | 2.81 | 8.6 | 10.3
[9] | -4.47 | -11.1 | 1.26 | -6.37 | 7.6
[10] | -5.28 | 4.26 | -9.16 | -6.92 | -4.89
[11] | -14.8 | -12 | -3.62 | -0.32 | 1.94
[12] | -3.26 | -0.85 | -0.05 | -8.05 | -1.86
[13] | 0.35 | -0.99 | 7.3 | 10.2 | 14.7
[14] | 1.66 | -4.69 | 8.68 | 23.7 | 31.8
[28] | 3.07 | -1.65 | 0.35 | 12.4 | 9.59
